Each structure is given as a SMILES string. Counter-ions that a name gives are not always drawn.

As a reminder, the Ki is the dissociation constant of the complex between target and ligand, obtained from inhibition or displacement. Read a high Ki as a looser hold on the target.

The target in the assay is T1, mutated (E4Q, A5T) hMCHR1 receptor (Homo sapiens, UniProt Q99705, A5T/E4Q).
T1 construct: expressed in transfected cells; host or cells: HEK-293 (stably transfected), membranes
T1 sequence (Q99705 whole entry E4Q/A5T): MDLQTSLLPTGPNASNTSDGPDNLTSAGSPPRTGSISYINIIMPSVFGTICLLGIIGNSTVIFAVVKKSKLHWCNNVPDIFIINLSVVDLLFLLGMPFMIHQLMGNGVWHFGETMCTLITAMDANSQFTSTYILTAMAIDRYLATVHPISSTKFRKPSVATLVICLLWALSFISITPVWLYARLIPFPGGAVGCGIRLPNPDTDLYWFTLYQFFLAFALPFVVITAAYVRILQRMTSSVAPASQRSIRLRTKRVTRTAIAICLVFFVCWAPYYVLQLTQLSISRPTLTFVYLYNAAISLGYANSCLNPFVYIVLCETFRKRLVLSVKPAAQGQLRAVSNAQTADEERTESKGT
The assay can be described thus: Radioligand Binding Assay for Assessment of MCHR1 Activity. The following applies: membranes from stably transfected HEK-293 cells; competition with [Phe13,[125I]Tyr19]-MCH. The procedure:
Radioligand Binding Assay for Assessment of MCHR1 Activity
Membranes from stably transfected HEK-293 cells expressing a mutated (E4Q, A5T) hMCHR1 receptor were prepared by dounce homogenization and differential centrifugation. Binding experiments were carried out with 0.5-1.0 ug of membrane protein incubated in a total of 0.2 ml in 25 mM HEPES (pH 7.4) with 10 mM MgCl2, 2 mM EGTA, and 0.1% BSA (Binding Buffer) for 90 min. For competition binding assays, reactions were carried out in the presence of with 0.06-0.1 nM [Phe^13, [^125I]Tyr^19]-MCH and increasing concentrations of unlabeled test molecules. Reactions were terminated by rapid vacuum filtration over 96 well-GFC UNIFILTER® plates pre-coated with 0.075 ml binding buffer containing 1% BSA, and washed 3 times with 0.4 ml of Phospho-buffered Saline (pH 7.4) containing 0.01% TX-100. Filters were dried, 0.05 ml microscint 20 was added to each well and radioactivity was subsequently quantified by scintillation counting on a TOPCOUNT® microplate scintillation counter (Packard). Inhibitory constants were determined by nonlinear least squares analysis using a four parameter logistic equation.
Compound `COc1cc(N2Cc3nn(-c4ccc(Cl)cc4)cc3C2=O)ccc1OC[C@H](O)C1CC1` [Example 1, (R)-2-(4-Chlorophenyl)-5-(4-(2-cyclopropyl-2-hydroxyethoxy)-3-methoxyphenyl)-5,6-dihydropyrrolo[3,4-c]pyrazol-4(2H)-one] yielded a Ki of 0.0414 µM.
The figure for `COc1cc(N2Cc3nn(-c4ccc(Cl)cc4)cc3C2=O)ccc1OCC(C)O` (centres unmarked) [Example 2, 2-(4-Chlorophenyl)-5-(4-(2-hydroxypropoxy)-3-methoxyphenyl)-5,6-dihydropyrrolo[3,4-c]pyrazol-4(2H)-one] is 0.334 µM; for `COc1cc(N2Cc3nn(-c4ccc(Cl)cc4)cc3C2=O)ccc1OCC(C)(C)O` [Example 3, 2-(4-Chlorophenyl)-5-(4-(2-hydroxy-2-methylpropoxy)-3-methoxyphenyl)-5,6-dihydropyrrolo[3,4-c]pyrazol-4(2H)-one] it is 0.106 µM; for `COc1cc(N2Cc3nn(-c4ccc(Cl)cc4)cc3C2=O)ccc1OCC(C)OS(C)(=O)=O` (centres unmarked) [Example 4, 1-(4-(2-(4-Chlorophenyl)-4-oxopyrrolo[3,4-c]pyrazol-5(2H,4H,6H)-yl)-2-methoxyphenoxy)propan-2-yl methanesulfonate] it is 0.0411 µM.
The figure for `COc1cc(N2Cc3cn(-c4ccc(Cl)cc4)nc3C2=O)ccc1OCC(C)OS(C)(=O)=O` (centres unmarked) [Example 5, 1-(4-(2-(4-Chlorophenyl)-6-oxopyrrolo[3,4-c]pyrazol-5(2H,4H,6H)-yl)-2-methoxyphenoxy)propan-2-yl methanesulfonate] is 0.0137 µM; for `COc1cc(N2Cc3cn(-c4ccc(Cl)cc4)nc3C2=O)ccc1OCC(C)O` (centres unmarked) [Example 6, 2-(4-Chlorophenyl)-5-(4-(2-hydroxypropoxy)-3-methoxyphenyl)-4,5-dihydropyrrolo[3,4-c]pyrazol-6(2H)-one] it is 0.0132 µM.
The figure for `COc1ccc(N2Cc3cn(-c4ccc(Cl)cc4)nc3C2=O)cc1OC` [Example 7, 2-(4-Chlorophenyl)-5-(3,4-dimethoxyphenyl)-4,5-dihydropyrrolo[3,4-c]pyrazol-6(2H)-one] is 0.0494 µM; for `COc1cc(N2Cc3cn(-c4ccc(Cl)cc4)nc3C2=O)ccc1OCC(C)(C)O` [Example 8, 2-(4-Chlorophenyl)-5-(4-(2-hydroxy-2-methylpropoxy)-3-methoxyphenyl)-4,5-dihydropyrrolo[3,4-c]pyrazol-6(2H)-one] it is 0.0125 µM.
`COc1cc(N2Cc3cn(-c4ccc(Cl)cc4)nc3C2=O)ccc1OC[C@H](O)C1CC1` [Example 9, (R)-2-(4-Chlorophenyl)-5-(4-(2-cyclopropyl-2-hydroxyethoxy)-3-methoxyphenyl)-4,5-dihydropyrrolo[3,4-c]pyrazol-6(2H)-one] returned an inhibition constant (Ki) of 0.0086 µM.
As for `COc1cc(N2Cc3cn(-c4ccc(Cl)cc4)nc3C2=O)ccc1OC[C@H](OC(=O)[C@@H](N)C(C)C)C1CC1` [Example 10, (S)-((R)-2-(4-(2-(4-Chlorophenyl)-6-oxopyrrolo[3,4-c]pyrazol-5(2H,4H,6H)-yl)-2-methoxyphenoxy)-1-cyclopropylethyl) 2-amino-3-methylbutanoate, TFA salt], the figure is 0.0027 µM; as for `O=C1c2nn(-c3ccc(Cl)cc3)cc2CN1c1ccc(N2CC[C@@H](O)C2)nc1` [Example 11, (R)-2-(4-Chlorophenyl)-5-(6-(3-hydroxypyrrolidin-1-yl)pyridin-3-yl)-4,5-dihydropyrrolo[3,4-c]pyrazol-6(2H)-one], 0.081 µM.
The compound `COc1cc(N2Cc3nn(-c4ccc(Cl)cc4)nc3C2=O)ccc1OCCN1CCCC1` [Example 12, 2-(4-Chlorophenyl)-5-(3-methoxy-4-(2-(pyrrolidin-1-yl)ethoxy)phenyl)-5,6-dihydropyrrolo[3,4-d][1,2,3]triazol-4(2H)-one] had a Ki of 0.0023 µM.
As for `COc1cc(N2Cc3nn(-c4ccc(Cl)cc4)nc3C2=O)ccc1OCC(C)(C)O` [Example 13, 2-(4-Chlorophenyl)-5-(4-(2-hydroxy-2-methylpropoxy)-3-methoxyphenyl)-5,6-dihydropyrrolo[3,4-d][1,2,3]triazol-4(2H)-one], the figure is 0.0343 µM; as for `COc1cc(N2Cc3nn(-c4ccc(Cl)cc4)nc3C2=O)ccc1OCC(O)C1CC1` (centres unmarked) [Example 14, 2-(4-Chlorophenyl)-5-(4-(2-cyclopropyl-2-hydroxyethoxy)-3-methoxyphenyl)-5,6-dihydropyrrolo[3,4-d][1,2,3]triazol-4(2H)-one], 0.113 µM.
The figure for `COc1cc(N2Cc3nn(-c4ccc(Cl)cc4)nc3C2=O)ccc1OCC(=O)C1CC1` [Example 14B, 2-(4-Chlorophenyl)-5-(4-(2-cyclopropyl-2-oxoethoxy)-3-methoxyphenyl)-5,6-dihydropyrrolo[3,4-d][1,2,3]triazol-4(2H)-one] is 0.304 µM; for `COc1cc(N2Cc3cn(-c4ccc(Cl)cc4)nc3C2=O)ccc1OCCN1CCCC1` [Example 15, 2-(4-Chlorophenyl)-5-(3-methoxy-4-(2-(pyrrolidin-1-yl)ethoxy)phenyl)-4,5-dihydropyrrolo[3,4-c]pyrazol-6(2H)-one, TFA] it is 0.0007 µM.
In the case of `CNC1CCN(c2ccc(N3Cc4cn(-c5ccc(Cl)cc5)nc4C3=O)cn2)C1` (centres unmarked) [Example 16, 2-(4-Chlorophenyl)-5-(6-(3-(methylamino)pyrrolidin-1-yl)pyridin-3-yl)-4,5-dihydropyrrolo[3,4-c]pyrazol-6(2H)-one, 2 TFA], the Ki was found to be 0.0025 µM.
The figure for `CN(C(=O)OC(C)(C)C)C1CCN(c2ccc(N3Cc4cn(-c5ccc(Cl)cc5)nc4C3=O)cn2)C1` (centres unmarked) [Example 16G, tert-Butyl 1-(5-(2-(4-chlorophenyl)-6-oxopyrrolo[3,4-e]pyrazol-5(2H,4H,6H)-yl)pyridin-2-yl)pyrrolidin-3-yl(methyl)carbamate] is 0.0036 µM; for `CN(C)[C@H]1CCN(c2ccc(N3Cc4cn(-c5ccc(Cl)cc5)nc4C3=O)cn2)C1` [Example 17, (S)-2-(4-Chlorophenyl)-5-(6-(3-(dimethylamino)pyrrolidin-1-yl)pyridin-3-yl)-4,5-dihydropyrrolo[3,4-c]pyrazol-6(2H)-one, 2 HCl] it is 0.0009 µM; for `CN(C)[C@@H]1CCN(c2ccc(N3Cc4cn(-c5ccc(Cl)cc5)nc4C3=O)cn2)C1` [Example 18, HCl] it is 0.0007 µM.
The figure for `CN[C@@H]1CCN(c2ccc(N3Cc4cn(-c5ccc(Cl)cc5)nc4C3=O)cn2)C1` [Example 19, (R)-2-(4-Chlorophenyl)-5-(6-(3-(methylamino)pyrrolidin-1-yl)pyridin-3-yl)-4,5-dihydropyrrolo[3,4-c]pyrazol-6(2H)-one, 2 HCl] is 0.0013 µM; for `CN(C(=O)OC(C)(C)C)[C@@H]1CCN(c2ccc(N3Cc4cn(-c5ccc(Cl)cc5)nc4C3=O)cn2)C1` [Example 19A, (R)-tort-Butyl 1-(5-(2-(4-chlorophenyl)-6-oxopyrrolo[3,4-c]pyrazol-5(2H,4H,6H)-yl)pyridin-2-yl)pyrrolidin-3-yl(methyl)carbamate] it is 0.184 µM.
The figure for `CN[C@H]1CCN(c2ccc(N3Cc4cn(-c5ccc(Cl)cc5)nc4C3=O)cn2)C1` [Example 20, (S)-2-(4-Chlorophenyl)-5-(6-(3-(methylamino)pyrrolidin-1-yl)pyridin-3-yl)-4,5-dihydropyrrolo[3,4-c]pyrazol-6(2H)-one, 2 HCl] is 0.0009 µM; for `CN(C(=O)OC(C)(C)C)[C@H]1CCN(c2ccc(N3Cc4cn(-c5ccc(Cl)cc5)nc4C3=O)cn2)C1` [Example 20A, (S)-tert-Butyl 1-(5-(2-(4-chlorophenyl)-6-oxopyrrolo[3,4-c]pyrazol-5(2H,4H,6H)-yl)pyridin-2-yl)pyrrolidin-3-yl(methyl)carbamate] it is 0.784 µM.
`CC(C)(C)NC1CCN(c2ccc(N3Cc4cn(-c5ccc(Cl)cc5)nc4C3=O)cn2)C1` (centres unmarked) [Example 24, 5-(6-(3-(tert-Butylamino)pyrrolidin-1-yl)pyridin-3-yl)-2-(4-chlorophenyl)-4,5-dihydropyrrolo[3,4-c]pyrazol-6(2H)-one] gave a Ki of 0.0027 µM.
As for `O=C1c2nn(-c3ccc(Cl)cc3)cc2CN1c1ccc(N2CCC(N3CCCC3)C2)nc1` (centres unmarked) [Example 28, 5-(6-(1,3′-Bipyrrolidin-1′-yl)pyridin-3-yl)-2-(4-chlorophenyl)-4,5-dihydropyrrolo[3,4-c]pyrazol-6(2H)-one], the figure is 0.0009 µM; as for `O=C1c2nn(-c3ccc(Cl)cc3)cc2CN1c1ccc(N2CCC(N3CCCC3)CC2)nc1` [Example 29, 2-(4-Chlorophenyl)-5-(6-(4-(pyrrolidin-1-yl)piperidin-1-yl)pyridin-3-yl)-4,5-dihydropyrrolo[3,4-c]pyrazol-6(2H)-one], 0.0171 µM.
Regarding `CN[C@H]1CCN(c2ccc(N3Cc4cn(-c5ccc(Cl)cc5)nc4C3=O)cc2OC)C1` [Example 42, (S)-2-(4-Chlorophenyl)-5-(3-methoxy-4-(3-(methylamino)pyrrolidin-1-yl)phenyl)-4,5-dihydropyrrolo[3,4-c]pyrazol-6(2H)-one, 2 TFA], the affinity, expressed as Ki, was 0.0005 µM.
The figure for `CN[C@H]1CCN(c2ncc(N3Cc4cn(-c5ccc(Cl)cc5)nc4C3=O)cn2)C1` [Example 47, (S)-2-(4-Chlorophenyl)-5-(2-(3-(methylamino)pyrrolidin-1-yl)pyrimidin-5-yl)-4,5-dihydropyrrolo[3,4-c]pyrazol-6(2H)-one] is 0.0327 µM.
